Results: patent US9868727B2, “Factor XIa inhibitors” (Merck Sharp & Dohme Corp., priority 2014, dated 2018)

Target: T1, purified human Factor XIa (Homo sapiens, UniProt P03951)
T1 construct: purified human Factor XIa; purchased Sekisui Diagnostics
Assay: Factor XIa Assay
Type: biochemical
Conditions: fluorogenic substrate Z-Gly-Pro-Arg-AFC 100 μM, 40 pM enzyme, pH 7.4, read-out: F11a IC50
Procedure: The effectiveness of a compound of the present invention as an inhibitor of Coagulation Factor XIa can be determined using a relevant purified serine protease, and an appropriate synthetic substrate. The rate of hydrolysis of the chromogenic or fluorogenic substrate by the relevant serine protease was measured both in the absence and presence of compounds of the present invention. Assays were conducted at room temperature or at 37° C. […] A decrease in the rate of fluorescence change in the presence of inhibitor is indicative of enzyme inhibition. Such methods are known to one skilled in the art. […]
Factor XIa determinations were made in 50 mM HEPES buffer at pH 7.4 containing 150 mM NaCl, 5 mM CaCl2, and 0.1% PEG 8000 (polyethylene glycol; JT Baker or Fisher Scientific). Determinations were made using purified human Factor XIa at a final concentration of 40 pM (Sekisui Diagnostics) and he synthetic substrate, Z-Gly-Pro-Arg-AFC, TFA salt (Sigma #C0980) at a concentration of 100 μM.
Activity assays were performed by diluting a stock solution of substrate at least tenfold to a final concentration ≦0.1 Km into a solution containing enzyme or enzyme equilibrated with inhibitor. Times required to achieve equilibration between enzyme and inhibitor were determined in control experiments. Initial velocities of product formation in the absence (VO) or presence of inhibitor (Vi) were measured. Assuming competitive inhibition, and that unity is negligible compared Km/[S], [I]/e, and [I]/e (where [S], [I], and e respectively represent the total concentrations, of substrate, inhibitor and enzyme), the equilibrium constant (Ki) for dissociation of the inhibitor from the enzyme can be obtained from the dependence of VO/Vi on [I] shown in the following equation.

T1 sequence (P03951 388-625 limits assumed): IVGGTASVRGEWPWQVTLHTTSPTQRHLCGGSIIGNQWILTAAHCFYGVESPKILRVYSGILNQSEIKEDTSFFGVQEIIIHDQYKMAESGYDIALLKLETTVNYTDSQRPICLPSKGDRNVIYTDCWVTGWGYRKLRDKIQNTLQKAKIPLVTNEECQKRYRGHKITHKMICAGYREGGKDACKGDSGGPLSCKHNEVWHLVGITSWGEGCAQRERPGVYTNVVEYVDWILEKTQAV
T1 sequence (P03951 19-387 partner limits assumed): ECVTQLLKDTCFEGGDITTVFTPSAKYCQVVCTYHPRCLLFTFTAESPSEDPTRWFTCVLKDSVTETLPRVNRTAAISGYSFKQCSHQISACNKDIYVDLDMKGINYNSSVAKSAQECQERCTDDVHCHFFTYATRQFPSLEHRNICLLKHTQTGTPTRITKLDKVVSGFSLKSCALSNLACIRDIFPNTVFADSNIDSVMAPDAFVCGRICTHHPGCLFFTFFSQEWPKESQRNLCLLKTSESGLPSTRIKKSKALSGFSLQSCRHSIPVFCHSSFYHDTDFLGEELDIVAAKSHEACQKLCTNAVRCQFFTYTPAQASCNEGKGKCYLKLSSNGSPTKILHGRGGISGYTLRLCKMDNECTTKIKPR

| SMILES | IC50 |
| --- | --- |
| O=C(O)c1ccc(-c2cnc(C(CC3CC3)c3ccc(-c4cc(Cl)ccc4-n4cnnn4)c[n+]3[O-])[nH]2)cc1 (single isomer, unassigned) [Example 55] | 593 nM |
| CC(C)OC(=O)Nc1ccc(-c2cnc(C(CC3CC3)c3ccc(-c4cc(Cl)ccc4-n4cnnn4)c[n+]3[O-])[nH]2)cc1 (racemic) [Example 46] | 2.91 nM |
| O=C(O)c1cccc(-c2cnc(C(CC3CC3)c3ccc(-c4cc(Cl)ccc4-n4cnnn4)c[n+]3[O-])[nH]2)c1F (single isomer, unassigned) [Example 52, 3-[2-(1-{5-[5-chloro-2-(1H-tetrazol-1-yl)phenyl]-1-oxidopyridin-2-yl}-2-cyclopropylethyl)-1H-imidazol-5-yl]-2-fluorobenzoic acid] | 204 nM |
| N#Cc1cccc(-c2cnc(C(CC3CC3)c3ccc(-c4cc(Cl)ccc4-n4cnnn4)c[n+]3[O-])[nH]2)c1 (single isomer, unassigned) [Example 35] | 1000 nM |
| [O-][n+]1cc(-c2cc(Cl)ccc2-n2cnnn2)ccc1C(Cc1ccc(F)cc1)c1nc(-c2ccc(Cl)cc2)c[nH]1 (single isomer, unassigned) [Example 21] | 128 nM |
| Nc1ccc(-c2cnc(C(CC3CC3)c3ccc(-c4cc(Cl)ccc4-n4cnnn4)c[n+]3[O-])[nH]2)c(Cl)n1 (single isomer, unassigned) [Example 48, 6-chloro-5-[2-(1-{5-[5-chloro-2-(1H-tetrazol-1-yl)phenyl]-1-oxidopyridin-2-yl}-2-cyclopropylethyl)-1H-imidazol-5-yl]pyridin-2-amine] | 72 nM |
| COC(=O)Nc1ccc(-c2cnc([C@@H](Cc3ccccc3)c3ccc(-c4cc(Cl)ccc4-c4cnco4)c[n+]3[O-])[nH]2)cc1 [Example 26] | 271 nM |
| COC(=O)Nc1ccc(-c2c[nH]c(C(Cc3ccc(F)cc3)c3ccc(-c4cc(Cl)ccc4C(F)F)c[n+]3[O-])n2)cc1 (single isomer, unassigned) [Example 12, 5-(5-chloro-2-(difluoromethyl)phenyl)-2-(2-(4-fluorophenyl)-1-(4-(4-((methoxycarbonyl)amino)phenyl)-1H-imidazol-2-yl)ethyl)pyridine 1-oxide] | 341 nM |
| [O-][n+]1cc(-c2cc(Cl)ccc2-n2cnnn2)ccc1C(CC1CC1)c1ncc(-c2cccc(F)c2)[nH]1 (single isomer, unassigned) [Example 31] | 1000 nM |
| O=C(O)c1cccc(-c2c[nH]c(C(CC3CC3)c3ccc(-c4cc(Cl)ccc4-n4cnnn4)c[n+]3[O-])n2)c1 (single isomer, unassigned) [Example 54] | 71 nM |
| COC(=O)Nc1ccc(-c2c[nH]c(C(Cc3ccccc3)c3ccc(-c4c(F)ccc(Cl)c4F)c[n+]3[O-])n2)cc1 (single isomer, unassigned) [Example 6] | 289 nM |
| COC(=O)Nc1ccc(-c2c[nH]c(C(Cc3ccc(F)cc3)c3ccc(-c4cc(Cl)ccc4OC(F)F)c[n+]3[O-])n2)cc1 (racemic) [Example 15] | 34.2 nM |
| COC(=O)Nc1ccc(-c2c[nH]c(C(Cc3ccc(F)cc3)c3ccc(-c4c(C#N)ccc(Cl)c4F)c[n+]3[O-])n2)cc1 (racemic) [Example 14] | 59.9 nM |
| N#Cc1ccc(-c2cnc(C(CC3CC3)c3ccc(-c4cc(Cl)ccc4-n4cnnn4)c[n+]3[O-])[nH]2)cc1 (single isomer, unassigned) [Example 30, 4-[2-(1-{5-[5-chloro-2-(1H-tetrazol-1-yl)phenyl]-1-oxidopyridin-2-yl}-2-cyclopropylethyl)-1H-imidazol-5-yl]benzonitrile] | 266 nM |
| N#Cc1ccc(-c2c[nH]c(C(Cc3ccc(F)cc3)c3ccc(-c4cc(Cl)ccc4-n4cnnn4)c[n+]3[O-])n2)cc1 (single isomer, unassigned) [Example 19] | 311 nM |
| COC(=O)Nc1ccc(-c2cnc(C(CC3CC3)c3ccc(-c4cc(Cl)ccc4-n4cnnn4)c[n+]3[O-])[nH]2)c(F)c1 (single isomer, unassigned) [Example 37] | 74.8 nM |

Results, then the molecule that gave them:

| IC50 | SMILES |
| --- | --- |
| 11 nM | COC(=O)Nc1ccc(-c2cnc(C(CC3CC3)c3ccc(-c4cc(Cl)ccc4-n4cc(C(F)F)nn4)c[n+]3[O-])[nH]2)cc1 (racemic) [Example 74] |
| 12.9 nM | COC(=O)Nc1ccc(-c2cnc(C(CC3CC3)c3ccc(-c4cc(Cl)ccc4-n4cnnc4)c[n+]3[O-])[nH]2)cc1 (racemic) [Example 66, 5-(5-chloro-2-(4H-1,2,4-triazol-4-yl)phenyl)-2-(2-cyclopropyl-1-(5-(4-((methoxycarbonyl)amino)phenyl)-1H-imidazol-2-yl)ethyl)pyridine 1-oxide] |
| 110 nM | NC(=O)c1scc(-c2cnc(C(CC3CC3)c3ccc(-c4cc(Cl)ccc4-n4cnnn4)c[n+]3[O-])[nH]2)c1F (single isomer, unassigned) [Example 59, 2-(1-(5-(5-carbamoyl-4-fluorothiophen-3-yl)-1H-imidazol-2-yl)-2-cyclopropylethyl)-5-(5-chloro-2-(1H-tetrazol-1-yl)phenyl)pyridine 1-oxide] |
| 631 nM | COC(=O)Nc1ccc(-c2cnc(C(CC3CC3)c3ccc(-c4cc(Cl)ccc4-n4cncn4)c[n+]3[O-])[nH]2)cc1 (racemic) [Example 68] |
| 931 nM | COC(=O)Nc1ccc(-c2cnc(C(CC3CC3)c3ccc(-c4cc(Cl)ccc4-n4cc(C(F)F)cn4)c[n+]3[O-])[nH]2)cc1 (racemic) [Example 75] |
| 834 nM | COC(=O)Nc1ccc(-c2cnc(C(CC3CC3)c3ccc(-c4cc(Cl)ccc4-c4cocn4)c[n+]3[O-])[nH]2)cc1 (racemic) [Example 71] |
| 11.9 nM | COC(=O)Nc1ccc(-c2cnc(C(CC3CC3)c3ccc(-c4cc(Cl)ccc4-n4ccnn4)c[n+]3[O-])[nH]2)cc1 (racemic) [Example 65, 5-(5-Chloro-2-(1H-1,2,3-triazol-1-yl)phenyl)-2-(2-cyclopropyl-1-(5-(4-((methoxycarbonyl)amino)phenyl)-1H-imidazol-2-yl)ethyl)pyridine 1-oxide] |
| 1000 nM | COC(=O)Nc1ccc(-c2cnc(C(CC3CC3)c3ccc(-c4cc(Cl)ccc4-c4cnco4)c[n+]3[O-])[nH]2)cc1 (single isomer, unassigned) [Example 70] |
| 54.4 nM | COC(=O)Nc1ccc(-c2[nH]c(C(CC3CC3)c3ccc(-c4cc(Cl)ccc4-n4cnnn4)c[n+]3[O-])nc2Cl)cc1 (single isomer, unassigned) [Example 78, 5-(5-chloro-2-(1H-tetrazol-1-yl)phenyl)-2-(1-(4-chloro-5-(4-((methoxycarbonyl)amino)phenyl)-1H-imidazol-2-yl)-2-cyclopropylethyl)pyridine 1-oxide] |
| 1000 nM | COC(=O)Nc1ccc(-c2cnc(C(CC3CC3)c3ccc(-c4cc(Cl)ccc4-n4cccn4)c[n+]3[O-])[nH]2)cc1 (racemic) [Example 73] |
| 1000 nM | COC(=O)c1scc(-c2cnc(C(CC3CC3)c3ccc(-c4cc(Cl)ccc4-n4cnnn4)c[n+]3[O-])[nH]2)c1F (single isomer, unassigned) [Example 62, Methyl 4-[2-(1-{5-[5-chloro-2-(1H-tetrazol-1-yl)phenyl]-1-oxidopyridin-2-yl}-2-cyclopropylethyl)-1H-imidazol-5-yl]-3-fluorothiophene-2-carboxylate] |
